Results taken from US20260083692A1 (Strongbridge Dublin Limited, priority 2018, published 2026).
Like-named read-outs stand apart in the source and are kept apart here.

Columns and labels:
human OAT1 [1] = biological target: T1, human OAT1 (Homo sapiens, UniProt Q4U2R8); settings: for Uptake (Average ± SD), OAT1: OAT1-expressing HEK293 cells; for Uptake (Average ± SD), Control: control HEK293 cells (vector only); for % control: relative to solvent control
T1 sequence (Q4U2R8 1-563): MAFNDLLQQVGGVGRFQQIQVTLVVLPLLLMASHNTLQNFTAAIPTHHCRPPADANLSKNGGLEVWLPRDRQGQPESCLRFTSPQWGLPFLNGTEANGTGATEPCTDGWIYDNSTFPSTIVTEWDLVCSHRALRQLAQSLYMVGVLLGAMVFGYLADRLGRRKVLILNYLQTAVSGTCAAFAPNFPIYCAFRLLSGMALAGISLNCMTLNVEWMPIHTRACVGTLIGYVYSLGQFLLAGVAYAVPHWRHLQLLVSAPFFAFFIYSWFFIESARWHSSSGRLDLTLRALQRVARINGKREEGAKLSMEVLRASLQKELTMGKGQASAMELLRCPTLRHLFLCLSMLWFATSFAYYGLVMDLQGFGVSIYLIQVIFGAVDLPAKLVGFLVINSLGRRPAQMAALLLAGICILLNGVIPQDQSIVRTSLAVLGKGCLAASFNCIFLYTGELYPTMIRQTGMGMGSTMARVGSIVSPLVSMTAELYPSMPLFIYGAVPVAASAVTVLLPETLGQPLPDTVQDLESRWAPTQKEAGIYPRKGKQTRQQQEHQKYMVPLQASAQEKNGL

human OAT1 [2] = biological target: T1, human OAT1; test: cell-based

Structure (SMILES): CO[C@@H]1[C@@H](OC(N)=O)[C@@H](O)[C@H](Oc2ccc3c(O)c(NC(=O)c4ccc(O)c(CC=C(C)C)c4)c(=O)oc3c2C)OC1(C)C [Novobiocin]
- Uptake (Average ± SD), OAT1 (human OAT1 [1]; inhibitor 300 μM): 0.425 ± 0.071 pmol/mg protein
- Uptake (Average ± SD), Control (human OAT1 [1]; inhibitor 300 μM): 0.231 ± 0.048 pmol/mg protein
- Background corrected uptake rate (human OAT1 [1]; inhibitor 300 μM): 0.194 pmol/mg/min
- % control (human OAT1 [1]; inhibitor 300 μM): 3.2%

Structure (SMILES): NS(=O)(=O)c1cc(Cl)c(Cl)c(S(N)(=O)=O)c1 [Dichlorphenamide, 4,5-dichloro-1,3-benzenedisulfonamide]
- Uptake (Average ± SD), OAT1 (human OAT1 [1]; inhibitor 1 μM): 6.99 pmol/mg protein
- Uptake (Average ± SD), OAT1 (human OAT1 [1]; inhibitor 3 μM): 5.99 ± 1.16 pmol/mg protein
- Uptake (Average ± SD), OAT1 (human OAT1 [1]; inhibitor 10 μM): 3.70 ± 0.44 pmol/mg protein
- Uptake (Average ± SD), OAT1 (human OAT1 [1]; inhibitor 30 μM): 3.25 ± 0.39 pmol/mg protein
- Uptake (Average ± SD), OAT1 (human OAT1 [1]; inhibitor 100 μM): 1.79 ± 0.25 pmol/mg protein
- Uptake (Average ± SD), OAT1 (human OAT1 [1]; inhibitor 300 μM): 1.47 ± 0.12 pmol/mg protein
- Uptake (Average ± SD), OAT1 (human OAT1 [1]; inhibitor 1000 μM): 0.669 ± 0.099 pmol/mg protein
- Uptake (Average ± SD), Control (human OAT1 [1]; inhibitor 1 μM): 0.0857 pmol/mg protein
- Uptake (Average ± SD), Control (human OAT1 [1]; inhibitor 3 μM): 0.107 ± 0.040 pmol/mg protein
- Uptake (Average ± SD), Control (human OAT1 [1]; inhibitor 10 μM): 0.0571 ± 0.0257 pmol/mg protein
- Uptake (Average ± SD), Control (human OAT1 [1]; inhibitor 30 μM): 0.612 ± 0.907 pmol/mg protein
- Uptake (Average ± SD), Control (human OAT1 [1]; inhibitor 100 μM): 0.150 ± 0.026 pmol/mg protein
- Uptake (Average ± SD), Control (human OAT1 [1]; inhibitor 300 μM): 0.0452 ± 0.0082 pmol/mg protein
- Uptake (Average ± SD), Control (human OAT1 [1]; inhibitor 1000 μM): 0.119 ± 0.022 pmol/mg protein
- IC50 parameters: Max (human OAT1 [1]; fit of OAT1 inhibition curve): Max: 115%
- IC50 parameters: Min (human OAT1 [1]; fit of OAT1 inhibition curve): Min: 0%
- Background corrected uptake rate (human OAT1 [1]; inhibitor 1 μM): 6.90 pmol/mg/min
- % control (human OAT1 [1]; inhibitor 1 μM): 112%
- Background corrected uptake rate (human OAT1 [1]; inhibitor 3 μM): 5.88 pmol/mg/min
- % control (human OAT1 [1]; inhibitor 3 μM): 95.6%
- Background corrected uptake rate (human OAT1 [1]; inhibitor 10 μM): 3.64 pmol/mg/min
- % control (human OAT1 [1]; inhibitor 10 μM): 59.2%
- Background corrected uptake rate (human OAT1 [1]; inhibitor 30 μM): 2.64 pmol/mg/min
- % control (human OAT1 [1]; inhibitor 30 μM): 42.9%
- Background corrected uptake rate (human OAT1 [1]; inhibitor 100 μM): 1.64 pmol/mg/min
- % control (human OAT1 [1]; inhibitor 100 μM): 26.7%
- Background corrected uptake rate (human OAT1 [1]; inhibitor 300 μM): 1.42 pmol/mg/min
- % control (human OAT1 [1]; inhibitor 300 μM): 23.1%
- Background corrected uptake rate (human OAT1 [1]; inhibitor 1000 μM): 0.550 pmol/mg/min
- % control (human OAT1 [1]; inhibitor 1000 μM): 8.9%
- IC50 (human OAT1 [2]): 17.7 µM
